# From patent publication US20050059014A1, “Analytical platform and detection method with the analytes to be determined in a sample as immobilized specific binding partners” (priority 2002, published 2005)
# Test system: Phospho-p44/42 MAP kinase (pErk2)
# Assay: Cell lysate array on evanescent field sensor platform, detection with antibody A3
# Assay type: cell-based, human
# Conditions: Jurkat cells, staurosporine 10 μM, 180 min
# Procedure: Human T-cell cultures (Jurkat, DMZ # ACC282) are utilized for the detection of biologically relevant protein analytes in “nature-identical” samples. These cells are cultivated at 37° C. in a solution containing RPMI 1640, 10 % FCS (fetal calf serum), 2 mM glutamine, 50 U/ml penicillin, 50 μg/ml streptamycine (cell density at about 0.5−×10^6−1.0×10^6 cells/ml).
# Then the cell cultures treated as described above and the untreated cell cultures, respectively, are cooled to 4° C. and formed to pellets by centrifugation at a centrifugal force of 350×g (number of cells at about 10^7).The cells here are simply separated from the medium, without damage to the cells. […]
# The fluorescence signals from the various arrays of measurement areas undergo automatic sequential measurement using a ZeptoREADER™ (Zeptosens AG, Benkenstrasse 254, CH-4108 Witterswil). […] Then, for each array, images of the fluorescence signals from the corresponding array are generated, wherein the user can select different exposure times and the number of images to be generated. In the case of measurements for the present example, the excitation wavelength is 633 nm, and the detection of the fluorescence light at the fluorescence wavelength of Cy5 is performed using a cooled camera, an interference filter (transmission 670 nm ±20 nm) for suppression of scattered light being positioned in front of the lens of the camera. […]
structure (smiles),measurement,value
"CN[C@@H]1C[C@H]2O[C@@](C)([C@@H]1OC)n1c3ccccc3c3c4c(c5c6ccccc6n2c5c31)C(=O)NC4 [staurosporin, staurosporine]",pErk2 signal of the nonstimulated control sample compared with the sample treated with staurosporin,only slightly higher
